Measured values published in US20260262643A1, “HERBICIDAL BENZOXAZINES” (FMC CORPORATION, priority 2022, published 2026).

What was measured:
blackgrass [1] = experiment: Test A preemergence; assay type: in vivo, Alopecurus myosuroides
Outline: (§1)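 Weeds and crops in loam–sand blend were sprayed preemergence onto soil or postemergence at 2–10 cm (one- to two-leaf stage). Test chemicals were in a non-phytotoxic solvent with surfactant. After 10 days in the greenhouse, injury was rated visually against untreated controls on a 0 (no effect) to 100 (complete control) scale.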

corn [2] = experiment: Test A preemergence; assay type: in vivo, Zea mays
Outline: as §1

foxtail, giant [3] = experiment: Test A preemergence; assay type: in vivo, Setaria faberi
Outline: as §1

goosegrass [4] = experiment: Test A preemergence; assay type: in vivo, Eleusine indica
Outline: as §1

kochia [5] = experiment: Test A preemergence; assay type: in vivo, Bassia scoparia
Outline: as §1

oat, wild [6] = experiment: Test A preemergence; assay type: in vivo, Avena fatua
Outline: as §1

pigweed, palmer [7] = experiment: Test A preemergence; assay type: in vivo, Amaranthus palmeri
Outline: as §1

ragweed [8] = experiment: Test A preemergence; assay type: in vivo, Ambrosia artemisiifolia
Outline: as §1

ryegrass, Italian [9] = experiment: Test A preemergence; assay type: in vivo, Lolium multiflorum
Outline: as §1

soybean [10] = experiment: Test A preemergence; assay type: in vivo, Glycine max
Outline: as §1

wheat [11] = experiment: Test A preemergence; assay type: in vivo, Triticum aestivum
Outline: as §1

blackgrass [12] = experiment: Test A postemergence; assay type: in vivo, Alopecurus myosuroides
Outline: as §1

corn [13] = experiment: Test A postemergence; assay type: in vivo, Zea mays
Outline: as §1

foxtail, giant [14] = experiment: Test A postemergence; assay type: in vivo, Setaria faberi
Outline: as §1

goosegrass [15] = experiment: Test A postemergence; assay type: in vivo, Eleusine indica
Outline: as §1

kochia [16] = experiment: Test A postemergence; assay type: in vivo, Bassia scoparia
Outline: as §1

oat, wild [17] = experiment: Test A postemergence; assay type: in vivo, Avena fatua
Outline: as §1

pigweed, palmer [18] = experiment: Test A postemergence; assay type: in vivo, Amaranthus palmeri
Outline: as §1

ragweed [19] = experiment: Test A postemergence; assay type: in vivo, Ambrosia artemisiifolia
Outline: as §1

ryegrass, Italian [20] = experiment: Test A postemergence; assay type: in vivo, Lolium multiflorum
Outline: as §1

soybean [21] = experiment: Test A postemergence; assay type: in vivo, Glycine max
Outline: as §1

wheat [22] = experiment: Test A postemergence; assay type: in vivo, Triticum aestivum
Outline: as §1

galium = experiment: Test A postemergence; assay type: in vivo, Galium aparine
Outline: as §1

horseweed = experiment: Test A postemergence; assay type: in vivo, Erigeron canadensis
Outline: as §1

barnyardgrass = experiment: Test B flooded paddy test; assay type: in vivo, Echinochloa crus-galli; details: 250 g ai/ha, Flood, 13 days, 0 to 100 scale (0 no effect, 100 complete control)
Outline: (§2)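 Each species was raised to the 2-leaf stage. At treatment, each pot received floodwater 3 cm deep, with the chemical delivered into the water. Greenhouse holding followed for 13 days, then percent control was estimated visually versus untreated pots.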

ducksalad = experiment: Test B flooded paddy test; assay type: in vivo, Heteranthera limosa; details: 250 g ai/ha, Flood, 13 days, 0 to 100 scale (0 no effect, 100 complete control)
Outline: as §2

rice = experiment: Test B flooded paddy test; assay type: in vivo, Oryza sativa; details: 250 g ai/ha, Flood, 13 days, 0 to 100 scale (0 no effect, 100 complete control)
Outline: as §2

sedge, umbrella = experiment: Test B flooded paddy test; assay type: in vivo, Cyperus difformis; details: 250 g ai/ha, Flood, 13 days, 0 to 100 scale (0 no effect, 100 complete control)
Outline: as §2

[23] = 125 g ai/ha, visual injury after 10 days, 0 to 100 scale, 0 is no effect, 100 is complete control
[24] = 500 g ai/ha, 0 to 100 scale (0 no effect, 100 complete control), 10 days
[25] = 125 g ai/ha, postemergence, 10 days, visual injury, 0 to 100 scale (0 no effect, 100 complete control)
[26] = 500 g ai/ha, Postemergence, 0 to 100 scale
[27] = 500 g ai/ha, postemergence, 10 days, visual injury, 0 to 100 scale (0 no effect, 100 complete control)

Structure (SMILES): Cc1cccc2c1O[C@@H](C)CN2C(=O)c1ccc(F)c(-n2cncn2)c1 [Compound 52]
- Plant response rating, Blackgrass (blackgrass [1]; [23]): 50
- Plant response rating, Blackgrass (blackgrass [1]; [24]): 60
- Plant response rating, Corn (corn [2]; [23]): 20
- Plant response rating, Corn (corn [2]; [24]): 40
- Plant response rating, Foxtail, Giant (foxtail, giant [3]; [23]): 90
- Plant response rating, Foxtail, Giant (foxtail, giant [3]; [24]): 100
- Plant response rating, Goosegrass (goosegrass [4]; [23]): 90
- Plant response rating, Goosegrass (goosegrass [4]; [24]): 100
- Plant response rating, Kochia (kochia [5]; [23]): 0
- Plant response rating, Kochia (kochia [5]; [24]): 70
- Plant response rating, Oat, Wild (oat, wild [6]; [23]): 40
- Plant response rating, Oat, Wild (oat, wild [6]; [24]): 80
- Plant response rating, Pigweed, Palmer (pigweed, palmer [7]; [23]): 0
- Plant response rating, Pigweed, Palmer (pigweed, palmer [7]; [24]): 100
- Plant response rating, Ragweed (ragweed [8]; [23]): 0
- Plant response rating, Ragweed (ragweed [8]; [24]): 70
- Plant response rating, Ryegrass, Italian (ryegrass, Italian [9]; [23]): 80
- Plant response rating, Ryegrass, Italian (ryegrass, Italian [9]; [24]): 100
- Plant response rating, Soybean (soybean [10]; [23]): 30
- Plant response rating, Soybean (soybean [10]; [24]): 90
- Plant response rating, Wheat (wheat [11]; [23]): 30
- Plant response rating, Wheat (wheat [11]; [24]): 60
- Plant response rating, Blackgrass (blackgrass [12]; [25]): 50
- Plant response rating, Blackgrass (blackgrass [12]; [26]): 60
- Plant response rating, Corn (corn [13]; [25]): 40
- Plant response rating, Corn (corn [13]; [26]): 70
- Plant response rating, Foxtail, Giant (foxtail, giant [14]; [25]): 60
- Plant response rating, Foxtail, Giant (foxtail, giant [14]; [26]): 90
- Plant response rating, Goosegrass (goosegrass [15]; [25]): 50
- Plant response rating, Goosegrass (goosegrass [15]; [26]): 60
- Plant response rating, Kochia (kochia [16]; [25]): 10
- Plant response rating, Kochia (kochia [16]; [26]): 60
- Plant response rating, Oat, Wild (oat, wild [17]; [25]): 20
- Plant response rating, Oat, Wild (oat, wild [17]; [26]): 80
- Plant response rating, Pigweed, Palmer (pigweed, palmer [18]; [25]): 30
- Plant response rating, Pigweed, Palmer (pigweed, palmer [18]; [26]): 60
- Plant response rating, Ragweed (ragweed [19]; [25]): 0
- Plant response rating, Ragweed (ragweed [19]; [26]): 30
- Plant response rating, Ryegrass, Italian (ryegrass, Italian [20]; [25]): 40
- Plant response rating, Ryegrass, Italian (ryegrass, Italian [20]; [26]): 80
- Plant response rating, Soybean (soybean [21]; [25]): 100
- Plant response rating, Soybean (soybean [21]; [26]): 100
- Plant response rating, Wheat (wheat [22]; [25]): 30
- Plant response rating, Wheat (wheat [22]; [26]): 60
- Plant response rating, Galium (galium; [25]): 30
- Plant response rating, Galium (galium; [26]): 90
- Plant response rating, Horseweed (horseweed; [25]): 0
- Plant response rating, Horseweed (horseweed; [26]): 0
- Plant response rating, Barnyardgrass (barnyardgrass): 25
- Plant response rating, Ducksalad (ducksalad): 50
- Plant response rating, Rice (rice): 10
- Plant response rating, Sedge, Umbrella (sedge, umbrella): 75

Structure (SMILES): CCc1ncn(-c2cccc(C(=O)N3C[C@H](C)Oc4c(C)cccc43)c2)n1 [Compound 71]
- Plant response rating, Blackgrass (blackgrass [1]; [23]): 80
- Plant response rating, Blackgrass (blackgrass [1]; [24]): 90
- Plant response rating, Corn (corn [2]; [23]): 40
- Plant response rating, Corn (corn [2]; [24]): 60
- Plant response rating, Foxtail, Giant (foxtail, giant [3]; [23]): 100
- Plant response rating, Foxtail, Giant (foxtail, giant [3]; [24]): 100
- Plant response rating, Goosegrass (goosegrass [4]; [23]): 100
- Plant response rating, Goosegrass (goosegrass [4]; [24]): 100
- Plant response rating, Kochia (kochia [5]; [23]): 80
- Plant response rating, Kochia (kochia [5]; [24]): 100
- Plant response rating, Oat, Wild (oat, wild [6]; [23]): 90
- Plant response rating, Oat, Wild (oat, wild [6]; [24]): 90
- Plant response rating, Pigweed, Palmer (pigweed, palmer [7]; [23]): 100
- Plant response rating, Pigweed, Palmer (pigweed, palmer [7]; [24]): 100
- Plant response rating, Ragweed (ragweed [8]; [23]): 0
- Plant response rating, Ragweed (ragweed [8]; [24]): 90
- Plant response rating, Ryegrass, Italian (ryegrass, Italian [9]; [23]): 100
- Plant response rating, Ryegrass, Italian (ryegrass, Italian [9]; [24]): 100
- Plant response rating, Soybean (soybean [10]; [23]): 50
- Plant response rating, Soybean (soybean [10]; [24]): 90
- Plant response rating, Wheat (wheat [11]; [23]): 30
- Plant response rating, Wheat (wheat [11]; [24]): 90
- Plant response rating, Blackgrass (blackgrass [12]; [25]): 80
- Plant response rating, Blackgrass (blackgrass [12]; [26]): 90
- Plant response rating, Corn (corn [13]; [25]): 60
- Plant response rating, Corn (corn [13]; [27]): 90
- Plant response rating, Foxtail, Giant (foxtail, giant [14]; [25]): 90
- Plant response rating, Foxtail, Giant (foxtail, giant [14]; [27]): 90
- Plant response rating, Goosegrass (goosegrass [15]; [25]): 10
- Plant response rating, Goosegrass (goosegrass [15]; [27]): 50
- Plant response rating, Kochia (kochia [16]; [25]): 60
- Plant response rating, Kochia (kochia [16]; [27]): 90
- Plant response rating, Oat, Wild (oat, wild [17]; [27]): 80
- Plant response rating, Pigweed, Palmer (pigweed, palmer [18]; [27]): 70
- Plant response rating, Ragweed (ragweed [19]; [27]): 80
- Plant response rating, Ryegrass, Italian (ryegrass, Italian [20]; [27]): 100
- Plant response rating, Soybean (soybean [21]; [27]): 100
- Plant response rating, Wheat (wheat [22]; [27]): 80
- Plant response rating, Galium (galium; [25]): 100
- Plant response rating, Galium (galium; [27]): 100
- Plant response rating, Horseweed (horseweed; [25]): 30
- Plant response rating, Horseweed (horseweed; [27]): 80
- Plant response rating, Barnyardgrass (barnyardgrass): 0
- Plant response rating, Ducksalad (ducksalad): 65
- Plant response rating, Rice (rice): 0
- Plant response rating, Sedge, Umbrella (sedge, umbrella): 95
